{"source": "patent US20060088472A1", "about": "“E7 regulation of p21 cip1 through akt” (priority 2002, published 2006)", "molecules": {"B1": {"name": "p21^Cip1 (endogenous, in lysates of RafAR-expressing NIH3T3 cells) (other, UniProt P39689 2-159, looked up)", "chain": "SNPGDVRPVPHRSKVCRCLFGPVDSEQLRRDCDALMAGCLQEARERWNFDFVTETPLEGNFVWERVRSLGLPKVYLSPGSRSRDDLGGDKRPSTSSALLQGPAPEDHVALSLSCTLVSERPEDSPGGPGTSQGRKRRQTSLTDFYHSKRRLVFCKRKP", "notes": "also called p21^Cpi1"}, "B2": {"name": "purified recombinant GST-E7 (HPV16 E7) (other)", "chain": "MHGDTPTLHEYMLDLQPETTDLYCYEQLNDSSEEEDEIDGPAGQAEPDRAHYNIVTFCCKCDSTLRLCVQSTHVDIRTLEDLLMGTLGIVCPICSQKP"}}, "key": {"[1]": {"tested_on": "p27^Kip1 nuclear localization", "test": "p27^Kip1 localization by immunofluorescence in TGF-β treated tet-E7 Mv1Lu cells", "assay_type": "cell-based, mink", "settings": "3 ng/mL TGF-β, 24 hours, absence of E7", "description": "(A) Tet-E7 Mv1Lu cells were treated for 24 hours with 2 μg/mL doxycycline or vehicle. Cell lysates were analyzed by Western blotting with antibody specific for HPV16 E7. (B) Tet-E7 Mv1Lu cells were treated for 24 hours with 3 ng/mL TGF-β in the presence or absence of 2 μg/mL doxycycline and subsequently analyzed for p27^Kip1 expression via Western blot. (C, D) Tet-E7 Mv1Lu cells were treated as in (B), fixed with 3.7% paraformaldehyde, and stained with p27^Kip1 specific antibody as described in Materials and Methods. (C) Representative fluorescent (left panels) and phase contrast (right panels) micrographs of TGF-β treated cells in the absence (upper panels) or presence (lower panels) of doxycycline. […] The number of cells with nuclear p27^Kip1 accumulation is represented as a percentage of total cells counted. The average and deviation values shown are from two independent experiments with at least 200 cells counted per experiment.\nCell culture. NIH3T3 cells stably expressing the RafAR fusion protein have been described previously (Sewing et al., 1997). This cell line and all derivatives were cultured in DMEM without phenol red (GIBCO-BRL) supplemented with 10% charcoal-stripped newborn calf serum (NCS, Hyclone). […]\nImmunofluorescence. […] Antigen staining was visualized by inverted fluorescence microscopy (Olympus CK40), and images were captured with Quality Imaging camera and software. […]"}, "[2]": {"tested_on": "Akt phosphorylated on serine 473 (P-Akt)", "assay_type": "cell-based, murine", "description": "The drugs and R1881 were added at 0 hr and the samples were taken at 6 hrs post-treatment.\nImmunoblotting and immunoprecipitations (IP). Cell pellets were lysed in HLB lysis buffer (50 mM Tris pH 8.0, 150 mM NaCl, 1% Triton X-100, 1 mM DTT, and protease inhibitor cocktail (Sigma P8340)) for 30 minutes with vortexing. After centrifugation, protein content was quantitated via a standard BioRad Bradford assay. For immunoblotting, 30-50 μg of cell lysate was separated by sodium dodecyl sulfate-polyacrylamide gel electrophoresis (SDS-PAGE) and transferred onto nitrocellulose membrane (Schleicher and Schuell). After incubation with primary and secondary antibodies, antigen detection was performed using the enhanced chemiluminescence kit from NEN. The following antibodies were obtained from Santa Cruz: α-cyclin D1 (sc-450, Western), α-cyclin D2 (sc-593, Western), α-cyclin E (sc-481, IP and Western), α-human cyclin E (sc-198, IP and Western), α-CDK2 (sc-163 g, IP and Western), α-CDK4 (sc-260, IP and Western), α-p21^Cip1 (sc-6246, Western), α-p21^Cip1 (sc-397, IP and immunofluorescence), and a-phospho-threonine (sc-5267, Western). HPV-16 E7-specific and RB-specific antibodies were purchased from Zymed and Pharmingen, respectively. Antibodies recognizing Akt or Akt phosphorylated at serine-473 were obtained from Cell Signaling. For immunoprecipitations, cell lysates were incubated with primary antibodies for 2 hours at 4° C., and immune-complexes were collected on Protein A-agarose beads (Santa Cruz) for an additional 1 hour. The complexes were washed four times with HLB buffer and resolved by 12% SDS-PAGE for immunoblotting.\nc-Raf-1 was induced by addition of the androgen analog R1881, as described herein and the cells harvested at various times thereafter."}, "[3]": {"tested_on": "NIH3T3 cells stably expressing the RafAR fusion protein", "test": "Cell cycle analysis (BrdU incorporation / propidium iodide) in RafAR-expressing NIH3T3 cells", "assay_type": "cell-based, murine", "settings": "control cells (Babe), RafAR activation with 1.0 μM R1881, 30 hours", "description": "(A) NIH3T3 cells stably expressing the RafAR fusion protein were infected with amphotrophic retroviruses expressing HPV-16 E7 (E7) or empty vector (Babe). Lysates were prepared and 100 μg of protein was resolved by 15% SDS-PAGE, transferred to nitrocellulose membrane, and probed with a monoclonal antibody directed against HPV-16 E7. (B and C) Pools of Babe- or E7-expressing cells growing in DMEM plus 10% NCS were treated with 0.02% ethanol (−) or 1.0 μM R1881 (+) for 30 hours and pulsed with BrdU for 30 minutes. Cells were trypsinized, fixed in 70% ethanol, and stained with propidium iodide (PI) for detection of total DNA content (B) and with α-BrdU-FITC for detection of DNA synthesis (C).\n(A) E7-expressing cells were treated for 30 hours with 1.0 μM R1881 in the absence or presence of increasing concentrations of LY294002 (50 μM, 100 μM, 200 μM), an inhibitor of PI-3K activity. DNA synthesis was measured via BrdU incorporation. (B) E7-expressing cells were treated with 1.0 uM R1881 in the presence or absence of 100 uM LY294002, stained with p21^Cip1-specific antibody, and quantitated for nuclear p21^Cip1 localization as in FIG. 7. […] Cells were stained with α-BrdU, and GFP-positive cells were scored for BrdU incorporation via indirect immunofluorescence. Percentages of BrdU incorporation were calculated by defining the number obtained from vehicle-treated cells as 100%. […]"}, "[4]": {"tested_on": "RafAR-expressing NIH3T3", "test": "Cell morphology after RafAR activation in NIH3T3", "assay_type": "cell-based, murine", "settings": "RafAR activation with 1.0 μM R1881"}, "[5]": {"tested_on": "human foreskin keratinocytes (HFK)", "test": "Adriamycin DNA damage in control or E7-expressing HFK, Western blots for active Akt and p21^CIP", "assay_type": "cell-based", "settings": "0.1 mM Adriamycin, 17 hours"}, "[6]": {"target": "cyclin E (endogenous, in lysates of RafAR-NIH3T3 cells) (UniProt Q61457 1-408)", "test": "cyclin E immunoprecipitation, p21^Cip1 Western blot"}, "[7]": {"target": "B1", "test": "GST pull-down from control cell lysate, Western blot"}, "[8]": {"target": "T1, RB (retinoblastoma protein, endogenous, in lysate of RafAR-NIH3T3 control cells) (UniProt P13405 2-921)", "T1 sequence": "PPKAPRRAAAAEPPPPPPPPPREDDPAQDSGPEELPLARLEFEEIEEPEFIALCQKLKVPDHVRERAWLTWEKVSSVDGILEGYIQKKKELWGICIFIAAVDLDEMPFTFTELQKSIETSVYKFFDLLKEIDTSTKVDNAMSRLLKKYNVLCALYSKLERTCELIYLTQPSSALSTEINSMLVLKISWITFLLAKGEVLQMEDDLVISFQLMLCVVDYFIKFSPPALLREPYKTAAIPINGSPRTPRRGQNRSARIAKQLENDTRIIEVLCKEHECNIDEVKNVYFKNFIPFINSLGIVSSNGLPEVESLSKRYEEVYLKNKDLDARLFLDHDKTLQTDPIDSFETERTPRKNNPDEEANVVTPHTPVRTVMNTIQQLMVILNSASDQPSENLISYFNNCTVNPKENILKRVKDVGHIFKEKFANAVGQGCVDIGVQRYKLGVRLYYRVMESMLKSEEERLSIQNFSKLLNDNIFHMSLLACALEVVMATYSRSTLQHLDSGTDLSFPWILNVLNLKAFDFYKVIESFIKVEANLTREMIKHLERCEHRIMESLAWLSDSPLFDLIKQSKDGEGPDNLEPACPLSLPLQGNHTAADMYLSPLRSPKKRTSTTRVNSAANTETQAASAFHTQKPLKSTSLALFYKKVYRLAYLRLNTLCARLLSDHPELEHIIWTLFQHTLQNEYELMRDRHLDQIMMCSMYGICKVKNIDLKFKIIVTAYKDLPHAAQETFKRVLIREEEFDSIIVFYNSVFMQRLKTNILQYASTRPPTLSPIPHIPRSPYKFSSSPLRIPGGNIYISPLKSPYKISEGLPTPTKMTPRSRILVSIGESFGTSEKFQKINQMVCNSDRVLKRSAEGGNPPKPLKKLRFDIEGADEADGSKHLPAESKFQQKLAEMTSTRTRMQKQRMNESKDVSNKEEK", "test": "GST pull-down from control cell lysate, Western blot"}, "[9]": {"settings": "drug added with R1881 at 0 hr, samples taken 6 hrs post-treatment"}}, "note": "Like-named read-outs stand apart in the source and are kept apart here. Residues, ends and D or L forms follow the SMILES beside them. *: point of attachment. Cbz = O=C(OCc1ccccc1)*", "data": [{"molecule": "TGF-β", "values": [{"measurement": "nuclear accumulation of p27^Kip1", "setting": "[1]", "value": "robust nuclear accumulation"}]}, {"molecule": "C[C@@H]1C[C@@H]([C@H](O)CC2CC(=O)NC(=O)C2)C(=O)[C@@H](C)C1", "note": "[cyclohexamide]", "values": [{"measurement": "down-regulation of active Akt (P-Akt) on induction of c-Raf-1", "setting": "[2]; [9]", "value": "inhibited the down-regulation of Akt"}]}, {"molecule": "C[C@]1(O)CC[C@H]2[C@@H]3CCC4=CC(=O)CCC4=C3C=C[C@@]21C", "note": "[R1881, methyltrienolone]", "values": [{"measurement": "DNA synthesis", "setting": "[3]", "value": "inhibition of DNA synthesis"}, {"measurement": "cells accumulating in G1", "setting": "[3]", "value": "> 85", "unit": "%"}, {"measurement": "time post-treatment at which down-regulation of active Akt (P-Akt) is observed", "setting": "[2]; c-Raf-1 induced by R1881", "value": "≤ 5", "unit": "h"}, {"measurement": "time post-treatment at which total Akt protein levels decrease", "setting": "[2]; c-Raf-1 induced by R1881", "value": "19 to 26", "unit": "h"}, {"measurement": "cell morphology", "setting": "[4]", "value": "morphological changes including elongation and development of extended processes"}]}, {"molecule": "CC(C)C[C@@H](C=O)NC(=O)[C@H](CC(C)C)NC(=O)[C@H](CC(C)C)NC(=O)OCc1ccccc1", "note": "[MG132] (Cbz-Leu-Leu-Leu-aldehyde)", "values": [{"measurement": "down-regulation of active Akt (P-Akt) on induction of c-Raf-1", "setting": "[2]; [9]", "value": "down-regulation of P-Akt was similar to control cells"}]}, {"molecule": "COc1cccc2c1C(=O)c1c(O)c3c(c(O)c1C2=O)C[C@@](O)(C(=O)CO)C[C@@H]3O[C@H]1C[C@H](N)[C@H](O)[C@H](C)O1", "note": "[adriamycin]", "values": [{"measurement": "active Akt levels after adriamycin treatment", "setting": "[5]", "value": "maintained only in E7-expressing cells"}, {"measurement": "p21^CIP levels after adriamycin treatment", "setting": "[5]", "value": "increased"}]}, {"molecule": "N#CC(=C(/N)Sc1ccccc1N)/C(C#N)=C(\\N)Sc1ccccc1N", "note": "[U0126]", "values": [{"measurement": "basal level of active Akt", "setting": "[2]", "value": "increased"}, {"measurement": "down-regulation of active Akt (P-Akt) on induction of c-Raf-1", "setting": "[2]", "value": "down-regulation is inhibited"}]}, {"molecule": "B1", "values": [{"measurement": "binding result", "setting": "[6]", "value": "binds"}]}, {"molecule": "B2", "values": [{"measurement": "binding result", "setting": "[7]", "value": "no binding"}, {"measurement": "binding result", "setting": "[8]", "value": "binds"}]}]}
